In brackets after ≈: the same amount, converted by molar mass. Where two headings read alike, the source gives them in different places.
What was measured:
Format in all cases: in vivo
Myzus persicae [1] = test: Aphicidal activity, topical application; conditions: 72 h
Description: (§1) Activity against resistant (R) and susceptible (S) strains of aphid (Myzus persicae) and Aphis gossypiae was assessed using the following two methods.
Batches of 10-15 apterous adults were removed from stock cultures and placed on leaf discs (35 mm in diameter) cut from chinese cabbage and held on an agar bed (25 mm deep) in disposable plastic containers (30 mm high). Using a Burkhard micro-applicator aphids were dosed individually with a 0.25 μm droplet of chemical diluted to the required concentration in acetone. control insects were dosed with acetone only. Mortality and other effects were scored at 24 hour intervals up to and including 72 hour post-treatment, the end-point to which the results relate.
(§2) The test was carried out using a susceptible strain of aphids (US1L) collected in the field in East Anglia, UK and an extremely resistant strain of aphids (794Jz) (R^3 esterase, sensitive ACHE) collected from glasshouses in the UK.
(§3) The values given are % mortality corrected for control data. The control comprised the test solution without active ingredient.

Bemisia tabaci = test: Film/vial test on whitefly (BT), susceptible strain SUD-S; conditions: 48 h; for mortality at 100 ppm: read-out: BT (SUD-S) kill at 100 ppm
Description: (§4) Pesticidal activity was assessed against houseflies, mustard beetles, mites and whitefly using the following methods.
Whitefly (BT) (Bemisia tabaci)
Acetone solutions (0.100 ml) of the test compounds were placed in 10 ml glass vials and evaporated with rotation to deposit a film of the compound. Thirty adult whiteflies were placed inside the vial, then after 60 minutes, the treated insects were transferred onto untreated cotton leaf discs which were kept moist on a bed of agar gel. The temperature was maintained at 25° C. and mortality assessed after 48 hours. Three replicates were used at each of 5 to 7 dose levels per compound. LC50 values were calculated by using a computer software package ("Polo-PC" available from LeOra Software, Berkeley, Calif.). (See M. R. Cahill and B. Hackett in Proceedings Brighton Crop Protection Conference, 1992). The test was carried out using a susceptible strain of whitefly (SUD-S) which was collected in Sudan in 1978 from cotton.
(§5) The values given are LD50 (μg/insect) or LC50 (ppm solution of test compound) unless otherwise specified.

Tetranychus urticae = test: Immersion test on mites (TU), susceptible strain GSS; conditions: 72 h
Description: as §4
Mites (TU) (Tetranychus urticae)
25 adult female mites were immersed in 35 μl of a solution of the test compound in a 1:4 acetone-water mixture for 30 seconds. The treated insects were maintained at 21°±2° C. and kill was assessed 72 hours after treatment. […] Three replicates of 25 mites each were used at each dose rate and 5 or 6 dose rates were used per compound under test. LC50 values were calculated in ppm of the solution of the test compound per insect. The test was carried out using a susceptible strain of mites (GSS) supplied by Schering, AG, Berlin.
as §5

Myzus persicae [2] = test: Aphicidal activity, aphid-dip
Description: as §1
(§6) Entrapment rings of fluon were painted halfway up the inside of 4 cm lengths of glass tubing (1.5 cm diameter), and squares of insect-proof gauze were attached to one end of each tube by elastic bands. Fifteen apterous adults were then gently transferred into the tubes using a sable-hair brush, and the tube sealed with a second gauze square.
(§7) Tubes containing aphids were dipped into insecticide solutions for 10 seconds, dried on blotting paper, and then inverted and tapped to cause treated aphids to fall to the unimmersed end of each tube. Handling mortality (usually zero or very slight) was scored after 1 hour, when aphids were transferred onto chinese cabbage leaf-discs (35 mm diameter) on an agar bed (25 mm in depth) in disposible plastic containers (30 mm high) and confined by applying a ring of fluon to the exposed lip of the container. Containers were stored upright, without lids, in a constant environment facility maintained at 25° C. under continuous room lighting. Mortality was assessed at 24, 48 and 72 hours. Two replicates of 15 aphids each were used at each dose rate and 5 or 6 dose rates were used per compound under test.
as §2, §3

Musca domestica = test: Topical test on houseflies (MD); conditions: for MD (LD50): houseflies, topical on thorax, kill assessed 24 and 48 h
Description: as §4
Houseflies (MD) (Musca domestica)
Female flies were treated on the thorax with a one microliter drop of test compound dissolved in acetone. Two replicates of 15 flies were used at each dose rate and 6 dose rates were used per compound under test. After treatment, the flies were maintained at a temperature of 20°±1° C. and kill was assessed 24 and 48 hours after treatment. LD50 values were calculated in micrograms of test compound per fly (see Sawicki et al., Bulletin of the World Health Organisation, 35, 893 (1966) and Sawicki et al., Entomologia and Exp. Appli 10, 253, (1967).
as §5

Aphis gossypiae = test: Aphicidal activity, aphid-dip; conditions: strain 81-171B, read-out: Aphid-dip result, % kill A.G. 81-171B
Description: as §1, §6, §7, §3

Phaedon cochleariae Fab = test: Topical test on mustard beetles (PC); conditions: for PC (LD50): mustard beetles, topical, 48 h; for PC LD50 (comparative examples): Table 7
Description: as §4
Mustard beetles (PC) (Phaedon cochleariae Fab)
A one microliter drop of an acetone solution of the test compound was applied ventrally to adult mustard beetles using a micro drop applicator. The treated insects were maintained for 48 hours after which time kill was assessed. Two replicates each of 20 to 25 mustard beetles were used at each dose level and 5 dose levels were treated comparably. LD50 values were calculated as for houseflies.
as §5

[3] = susceptible strain USIL, read-out: Topical aphid results, % kill M.P. USIL
[4] = resistant strain 794JZ, read-out: Topical aphid results, % kill M.P. 794JZ
[5] = susceptible strain USIL, read-out: Aphid-dip result, % kill M.P. USIL
[6] = read-out: TU LC50 (comparative examples)
[7] = read-out: BT LC50 (comparative examples)
[8] = resistant strain 794JZ, read-out: Aphid-dip result, % kill M.P. 794JZ

Row | SMILES | mortality at 100 ppm (Myzus persicae [1]; [3]) | LC50 (Bemisia tabaci; read-out: BT (SUD-S) (LC50)) | LC50 (Tetranychus urticae; read-out: TU (GSS) (LC50)) | mortality at 100 ppm (Myzus persicae [2]; [5]) | MD (LD50) (Musca domestica) | also measured
1 | CC[Si](C)(C)CCCCCCCCC1=C(O)C(=O)c2ccccc2C1=O [Example 14, 2-hydroxy-3(8-(dimethylethylsilyl)octyl)-1,4-naphthoquinone] | 74% | 15 µg/mL (≈ 40.3 µM) | – | – | – | –
2 | CC(=O)OC1=C(CCCCCCCCC[Si](C)(C)C)C(=O)c2ccccc2C1=O [Example 21, 2-ethanoyloxy-3-(9-trimethylsilylnonyl)-1,4-naphthoquinone] | – | < 100 µg/mL | 2 µg/mL (≈ 4.82 µM) | 66% | – | mortality at 100 ppm (Myzus persicae [1]; [4]): 89%; mortality at 125 ppm (Myzus persicae [1]; susceptible strain USIL, 125 ppm, read-out: Topical aphid results, % kill M.P. USIL): 66%
3 | C[Si](C)(C)CCCC1=C(O)C(=O)c2ccccc2C1=O [Example 7] | 45% | – | 6.4 µg/mL (≈ 22.2 µM) | 90% | 4.4 μg/insect | mortality at 100 ppm (Aphis gossypiae): 57%
4 | C[Si](C)(C)CC1=C(O)C(=O)c2ccccc2C1=O [Example 6] | – | 1.7 µg/mL (≈ 6.53 µM) | – | – | – | –
5 | CCCCCCCCCCCCC1=C(O)C(=O)c2ccccc2C1=O [--(CH2)11 CH3, reference compound] | – | – | – | – | – | LC50 (Tetranychus urticae; [6]): < 60 µg/mL; LC50 (Bemisia tabaci; [7]): > 100 µg/mL
6 | COC1(OC)C(O)=C(CC[Si](C)(C)C)C(=O)c2ccccc21 [Example 5, 2-hydroxy-3-(2'-trimethylsilylethyl)-1,4-naphthoquinone, 1-dimethyl acetal] | – | – | 41 µg/mL (≈ 128 µM) | – | > 20 μg/insect | PC (LD50) (Phaedon cochleariae Fab): ~20 μg/insect
7 | CCCCCCCCCCC1=C(O)C(=O)c2ccccc2C1=O [--(CH2)9 CH3, reference compound] | – | – | – | – | – | PC LD50 (comparative examples) (Phaedon cochleariae Fab): 1.9 μg/insect
8 | CCCC1=C(O)C(=O)c2ccccc2C1=O [--(CH2)2 CH3, reference compound] | – | – | – | – | – | LC50 (Bemisia tabaci; [7]): 80 µg/mL (≈ 370 µM)
9 | CCC(=O)OC1=C(CCCCCCCCC[Si](C)(C)C)C(=O)c2ccccc2C1=O [Example 22, 2-propanoyloxy-3-(9-trimethylsilylnonyl)-1,4-naphthoquinone] | 37% | – | – | – | – | –
10 | C[Si]1(CCCCCCCCC2=C(O)C(=O)c3ccccc3C2=O)CCCC1 [Example 18, 2-Hydroxy-3-(8-(1-methyl-(tetramethylenesilyl))octyl)-1,4-naphthoquinone] | 59% | – | 3.6 µg/mL (≈ 9.36 µM) | – | – | –
11 | C[Si](C)(C)CC=CC1=C(O)C(=O)c2ccccc2C1=O [Example 20, 2-hydroxy-3-(3-trimethylsilyl-1-propenyl)-1,4-naphthoquinone] | – | 30 µg/mL (≈ 105 µM) | 21 µg/mL (≈ 73.3 µM) | – | – | PC (LD50) (Phaedon cochleariae Fab): > 20 μg/insect
12 | C[Si](C)(C)CCCCCC1=C(O)C(=O)c2ccccc2C1=O [Example 3, 2-hydroxy-3(5'-trimethylsilylpentyl)-1,4-naphthoquinone] | 100% | 6.8 µg/mL (≈ 21.5 µM) | 2.8 µg/mL (≈ 8.85 µM) | 100% | 1.3 μg/insect | mortality at 100 ppm (Aphis gossypiae): 100%
13 | CCOCOC1=C(CCCCCCCCC[Si](C)(C)C)C(=O)c2ccccc2C1=O [Example 24, 2-ethoxymethoxy-3-(9-trimethylsilylnonyl)-1,4-naphthoquinone] | 16% | – | – | – | – | mortality at 100 ppm (Bemisia tabaci): 19%
14 | C[Si](C)(C)CCC1=C(OC(=O)c2ccccc2)C(=O)c2ccccc2C1=O [Example 1, 2-benzoyloxy-3-(2'-trimethylsilylethyl)-1,4-naphthoquinone] | – | – | 110 µg/mL (≈ 291 µM) | – | > 20 μg/insect | PC (LD50) (Phaedon cochleariae Fab): > 20 μg/insect
15 | CC[Si](CC)(CC)CCCCCCCCC1=C(O)C(=O)c2ccccc2C1=O [Example 15] | 58% | 22 µg/mL (≈ 54.9 µM) | 5.2 µg/mL (≈ 13 µM) | – | – | –
16 | CCCCCCC1=C(O)C(=O)c2ccccc2C1=O [--(CH2)5 CH3, reference compound] | – | – | – | – | – | LC50 (Tetranychus urticae; [6]): 170 µg/mL (≈ 658 µM); LC50 (Bemisia tabaci; [7]): 9.4 µg/mL (≈ 36.4 µM)
17 | C=COC(=O)OC1=C(CCCCCCCCC[Si](C)(C)C)C(=O)c2ccccc2C1=O [Example 23, 2-vinylcarbonato-3-(9-trimethylsilylnonyl)-1,4-naphthoquinone] | 63% | – | – | – | – | mortality at 100 ppm (Bemisia tabaci): 32%
18 | C[Si](C)(C)CCCCCCCCCCC1=C(O)C(=O)c2ccccc2C1=O [Example 13] | 90% | – | 2.2 µg/mL (≈ 5.69 µM) | 90% | 9.9 μg/insect | mortality at 100 ppm (Aphis gossypiae): 83%
19 | C[Si](C)(C)CCCCC1=C(O)C(=O)c2ccccc2C1=O [Example 8] | 90% | – | 9.2 µg/mL (≈ 30.4 µM) | 90% | 1.8 μg/insect | mortality at 1000 ppm (Myzus persicae [1]; resistant strain 794JZ, 1000 ppm, read-out: Topical aphid results, % kill M.P. 794JZ): 100%; mortality at 100 ppm (Myzus persicae [2]; [8]): 100%
20 | C[Si](C)(C)CCCCCCC1=C(O)C(=O)c2ccccc2C1=O [Example 9, 2-Hydroxy-3(6'-trimethylsilylhexyl)-1,4-naphthoquinone] | 100% | – | 4.5 µg/mL (≈ 13.6 µM) | 100% | 1.8 μg/insect | mortality at 100 ppm (Aphis gossypiae): 71%
21 | CCC[Si](CCC)(CCC)CCCCCCCCC1=C(O)C(=O)c2ccccc2C1=O [Example 16] | 24% | – | – | – | – | PC (LD50) (Phaedon cochleariae Fab): > 20 μg/insect; mortality at 100 ppm (Bemisia tabaci): 79%
22 | CCCCCCCCC1=C(O)C(=O)c2ccccc2C1=O [--(CH2)7 CH3, reference compound] | – | – | – | – | – | MD LD50 (comparative examples) (Musca domestica; Table 7): 1.9 μg/insect; PC LD50 (comparative examples) (Phaedon cochleariae Fab): 0.78 μg/insect
23 | C[Si](C)(C)CCCCCCCCC1=C(O)C(=O)c2ccccc2C1=O [Example 11] | 100% | 14.6 µg/mL (≈ 40.7 µM) | 0.51 µg/mL (≈ 1.42 µM) | 100% | 2.3 μg/insect | mortality at 100 ppm (Myzus persicae [1]; [4]): 95%; mortality at 100 ppm (Aphis gossypiae): 100%
24 | CC(=O)OC1=C(CC[Si](C)(C)C)C(=O)c2ccccc2C1=O [Example 4, 2-ethanoyloxy-3-(2'-trimethylsilylethyl)-1,4-naphthoquinone] | – | 2.9 µg/mL (≈ 9.16 µM) | 45 µg/mL (≈ 142 µM) | 19% | – | mortality at 100 ppm (Myzus persicae [2]; [8]): 19%
25 | C[Si](C)(C)CCCCCCCC1=C(O)C(=O)c2ccccc2C1=O [Example 10] | 100% | 8.2 µg/mL (≈ 23.8 µM) | 0.31 µg/mL (≈ 0.9 µM) | 100% | 1.7 μg/insect | mortality at 100 ppm (Aphis gossypiae): 100%
26 | C[Si]1(CCCCCCCCC2=C(O)C(=O)c3ccccc3C2=O)CCCCC1 [Example 19, 2-hydroxy-3-(8-(1-methyl-(pentamethylenesilyl))octyl)-1,4-naphthoquinone] | – | – | – | – | – | mortality at 100 ppm (Bemisia tabaci): 13%
27 | CCC[Si](C)(C)CCCCCCCCC1=C(O)C(=O)c2ccccc2C1=O [Example 17] | 88% | 13 µg/mL (≈ 33.6 µM) | 8.4 µg/mL (≈ 21.7 µM) | – | – | –

Reference: patent US6162799A, “Pesticidal compounds” (BTG International Limited, priority 1995, dated 2000)
